Laboratory results: patent US8613914B2, “Peptidomimetic sulfamide compounds and antiviral uses thereof” (Novartis AG, priority 2009, dated 2013)

Each compound was assayed against HCV NS3-4A serine protease (full-length NS3-4A protein) (Hepatitis C virus genotype 1a (isolate 1) (HCV), UniProt P26664) (assay: HCV NS3-4A protease assay). Conditions: strain HCV-1, fluorogenic peptide substrate, read-out: Protease assay Ex. 12 IC50.
Sequence of HCV NS3-4A serine protease (full-length NS3-4A protein) (P26664 1027-1657): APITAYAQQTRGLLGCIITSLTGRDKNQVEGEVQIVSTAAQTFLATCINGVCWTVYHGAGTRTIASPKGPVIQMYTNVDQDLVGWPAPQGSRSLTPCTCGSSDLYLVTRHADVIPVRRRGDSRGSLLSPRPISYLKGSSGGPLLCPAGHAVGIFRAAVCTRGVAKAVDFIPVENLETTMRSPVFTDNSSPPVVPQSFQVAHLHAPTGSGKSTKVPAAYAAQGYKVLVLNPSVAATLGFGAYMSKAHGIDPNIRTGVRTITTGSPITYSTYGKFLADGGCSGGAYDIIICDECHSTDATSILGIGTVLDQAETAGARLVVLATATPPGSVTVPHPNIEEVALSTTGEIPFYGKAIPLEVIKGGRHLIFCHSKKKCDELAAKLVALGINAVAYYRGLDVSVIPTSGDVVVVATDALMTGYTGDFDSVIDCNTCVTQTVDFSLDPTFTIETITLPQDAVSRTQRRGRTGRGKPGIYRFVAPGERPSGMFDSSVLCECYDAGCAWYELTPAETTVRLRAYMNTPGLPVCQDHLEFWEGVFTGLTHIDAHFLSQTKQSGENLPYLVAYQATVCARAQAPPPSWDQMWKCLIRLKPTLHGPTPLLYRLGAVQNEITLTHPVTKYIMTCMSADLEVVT
Sequence of HCV NS3-4A serine protease (full-length NS3-4A protein) (P26664 1658-1711 partner): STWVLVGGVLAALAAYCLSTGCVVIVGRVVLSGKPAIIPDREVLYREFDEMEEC
Type: biochemical, HCV genotype 1a
Description: The inhibitory activity of certain compounds of Table A against HCV NS3-4A serine protease is determined in a homogenous assay using the full-length NS3-4A protein (genotype 1a, strain HCV-1) and a commercially available internally-quenched fluorogenic peptide substrate as described by Taliani, M., et al. 1996 Anal. Biochem. 240:60-67, which is incorporated by reference in its entirety.
`C=C[C@@H]1C[C@]1(NC(=O)C1C[C@@]2(CN1C(=O)[C@@H](NC(=O)[C@@H](NC(=O)[C@@H]1CCCCN1C(C)C)C(C)(C)C)C1CCOCC1)C(C)(C)C21CCC1)C(=O)NS(=O)(=O)N1CCCC1` (stereo partly drawn) [Compound 67, (5R)-7-[(2S)-2-[(N-{[(2S)-1-isopropylpiperidin-2-yl]carbonyl}-3-methyl-L-valyl)amino]-2-(tetrahydro-2H-pyran-4-yl)acetyl]-10,10-dimethyl-N-{(1R,2S)-1-[(pyrrolidin-1-ylsulfonyl)carbamoyl]-2-vinylcyclopropyl}-7-azadispiro[3.0.4.1]decane-8-carboxamide] was tested, and the IC50 was 20 nM.
For `C=C[C@@H]1C[C@]1(NC(=O)[C@@H]1C[C@@]2(CN1C(=O)[C@@H](NC(=O)[C@@H](NC(=O)C1CCN1C(C)(C)C)C1CCCCC1)C(C)(C)C)C(C)(C)C21CCC1)C(=O)NS(=O)(=O)N1CCCC1` (stereo partly drawn) [Compound 40, (5R,8S)-7-[(2S)-2-{[(2S)-2-{[(1-tert-butylazetidin-2-yl)carbonyl]amino}-2-cyclohexylacetyl]amino}-3,3-dimethylbutanoyl]-10,10-dimethyl-N-{(1R,2S)-1-[(pyrrolidin-1-ylsulfonyl)carbamoyl]-2-vinylcyclopropyl}-7-azadispiro[3.0.4.1]decane-8-carboxamide], the IC50 was 6 nM.
For `C=C[C@@H]1C[C@]1(NC(=O)[C@@H]1C[C@@]2(CN1C(=O)[C@@H](NC(=O)[C@@H](NC(=O)C1CCN(C(C)=O)CC1)C1CCCCC1)C(C)(C)C)C(C)(C)C21CCC1)C(=O)NS(=O)(=O)N1CCCC1` [Compound 194, (5R,8S)-7-[(2S)-2-{[{[(1-acetylpiperidin-4-yl)carbonyl]amino}(cyclohexyl)acetyl]amino}-3,3-dimethylbutanoyl]-10,10-dimethyl-N-{(1R,2S)-1-[(pyrrolidin-1-ylsulfonyl)carbamoyl]-2-vinylcyclopropyl}-7-azadispiro[3.0.4.1]decane-8-carboxamide], the IC50 was 10 nM.
In the case of `C=C[C@@H]1C[C@]1(NC(=O)[C@@H]1C[C@@]2(CN1C(=O)[C@@H](NC(=O)[C@@H](NC(=O)[C@@H]1CCCN1CC)C1CCCC1)C(C)(C)C)C(C)(C)C21CCC1)C(=O)NS(=O)(=O)N(CC)CC` [Compound 97, (5R,8S)-7-[(2S)-2-{[(2S)-2-cyclopentyl-2-({[(2S)-1-ethylpyrrolidin-2-yl]carbonyl}amino)acetyl]amino}-3,3-dimethylbutanoyl]-N-[(1R,2S)-1-{[(diethylamino)sulfonyl]carbamoyl}-2-vinylcyclopropyl]-10,10-dimethyl-7-azadispiro[3.0.4.1]decane-8-carboxamide], the IC50 is reported as 10 nM.
With `C=C[C@@H]1C[C@]1(NC(=O)[C@@H]1C[C@@]2(CN1C(=O)[C@@H](NC(=O)[C@@H](NC(=O)c1cnccn1)C1CCCCC1)C(C)(C)C)C(C)(C)C21CCC1)C(=O)NS(=O)(=O)NC1CC1` [Compound 165, (5R,8S)-7-[(2S)-2-({(2S)-2-cyclohexyl-2-[(pyrazin-2-ylcarbonyl)amino]acetyl}amino)-3,3-dimethylbutanoyl]-N-[(1R,2S)-1-{[(cyclopropylamino)sulfonyl]carbamoyl}-2-vinylcyclopropyl]-10,10-dimethyl-7-azadispiro[3.0.4.1]decane-8-carboxamide] the IC50 was 6.2 nM.
`C=C[C@@H]1C[C@]1(NC(=O)[C@@H]1C[C@@]2(CN1C(=O)[C@@H](NC(=O)[C@@H](NC(=O)c1ccnc3ccccc13)C1CCCCC1)C(C)(C)C)C(C)(C)C21CCC1)C(=O)NS(=O)(=O)N1CCCC1` [Compound 197, (5R,8S)-7-[(2S)-2-({cyclohexyl[(quinolin-4-ylcarbonyl)amino]acetyl}amino)-3,3-dimethylbutanoyl]-10,10-dimethyl-N-{(1R,2S)-1-[(pyrrolidin-1-ylsulfonyl)carbamoyl]-2-vinylcyclopropyl}-7-azadispiro[3.0.4.1]decane-8-carboxamide] was tested, and the IC50 was 40 nM.
In the case of `C=CC1CC1(NC(=O)[C@@H]1C[C@@]2(CN1C(=O)[C@@H](NC(=O)[C@@H](NC(=O)C1CCCCN1C(C)C)C(C)(C)C)C(C)(C)C)C(C)(C)C21CCC1)C(=O)NS(=O)(=O)N1CCC[C@H]1CO` (stereo partly drawn) [Compound 163, (5R,8S)-N-[1-({[(2S)-2-(hydroxymethyl)pyrrolidin-1-yl]sulfonyl}carbamoyl)-2-vinylcyclopropyl]-7-[(2S)-2-{[(2S)-2-{[(1-isopropylpiperidin-2-yl)carbonyl]amino}-3,3-dimethylbutanoyl]amino}-3,3-dimethylbutanoyl]-10,10-dimethyl-7-azadispiro[3.0.4.1]decane-8-carboxamide], the IC50 is reported as 1500 nM.
Work on `C=C[C@@H]1C[C@]1(NC(=O)[C@@H]1C[C@@]2(CN1C(=O)[C@@H](NC(=O)[C@@H](NC(=O)[C@@H]1CCCCN1CC(F)F)C1CCCCC1)C1CCOCC1)C(C)(C)C21CCC1)C(=O)NS(=O)(=O)N1CCCC1` [Compound 74, (5R,8S)-7-[(2S)-2-{[(2S)-2-cyclohexyl-2-({[(2S)-1-(2,2-difluoroethyl)piperidin-2-yl]carbonyl}amino)acetyl]amino}-2-(tetrahydro-2H-pyran-4-yl)acetyl]-10,10-dimethyl-N-{(1R,2S)-1-[(pyrrolidin-1-ylsulfonyl)carbamoyl]-2-vinylcyclopropyl}-7-azadispiro[3.0.4.1]decane-8-carboxamide] yielded an IC50 of 65 nM.
With `C=C[C@@H]1C[C@]1(NC(=O)[C@@H]1C[C@@]2(CN1C(=O)[C@@H](NC(=O)[C@@H](NC(=O)[C@@H]1CCCCN1C(C)C)C1CCCCC1)C(C)(C)C)C(C)(C)C21CCC1)C(=O)NS(=O)(=O)N(C)OC` [Compound 55, (5R,8S)-7-[(2S)-2-{[(2S)-2-cyclohexyl-2-({[(2S)-1-isopropylpiperidin-2-yl]carbonyl}amino)acetyl]amino}-3,3-dimethylbutanoyl]-N-[(1R,2S)-1-({[methoxy(methyl)amino]sulfonyl}carbamoyl)-2-vinylcyclopropyl]-10,10-dimethyl-7-azadispiro[3.0.4.1]decane-8-carboxamide] the IC50 was 1.4 nM.
In the case of `C=C[C@@H]1C[C@]1(NC(=O)[C@@H]1C[C@@]2(CN1C(=O)[C@@H](NC(=O)[C@@H](NC(=O)[C@@H]1CCCCN1C(C)C)C1(C)CCOCC1)C1(C)CCCCC1)C(C)(C)C21CCC1)C(=O)NS(=O)(=O)N(CC)CC` [Compound 158, (5R,8S)-N-[(1R,2S)-1-{[(diethylamino)sulfonyl]carbamoyl}-2-vinylcyclopropyl]-7-[(2S)-2-{[(2S)-2-({[(2S)-1-isopropylpiperidin-2-yl]carbonyl}amino)-2-(4-methyltetrahydro-2H-pyran-4-yl)acetyl]amino}-2-(1-methylcyclohexyl)acetyl]-10,10-dimethyl-7-azadispiro[3.0.4.1]decane-8-carboxamide], the IC50 is reported as 22 nM.
For `C=C[C@@H]1C[C@]1(NC(=O)[C@@H]1C[C@@]2(CN1C(=O)[C@@H](NC(=O)[C@@H](NC(=O)[C@@H]1CCCN1CC)C1CCCCC1)C(C)(C)C)C(C)(C)C21CCC1)C(=O)NS(=O)(=O)N(CC)C(C)C` [Compound 111, (5R,8S)-7-[(2S)-2-{[(2S)-2-cyclohexyl-2-({[(2S)-1-ethylpyrrolidin-2-yl]carbonyl}amino)acetyl]amino}-3,3-dimethylbutanoyl]-N-[(1R,2S)-1-({[ethyl(isopropyl)amino]sulfonyl}carbamoyl)-2-vinylcyclopropyl]-10,10-dimethyl-7-azadispiro[3.0.4.1]decane-8-carboxamide], the IC50 was 8 nM.
`C=C[C@@H]1C[C@]1(NC(=O)[C@@H]1C[C@@]2(CN1C(=O)[C@@H](NC(=O)[C@@H](NC(=O)[C@@H]1CCCN1C(C)C)C1CCCCC1)C(C)(C)C)C(C)(C)C21CCC1)C(=O)NS(=O)(=O)N(C)CC` [Compound 91, (5R,8S)-7-[(2S)-2-{[(2S)-2-cyclohexyl-2-({[(2S)-1-isopropylpyrrolidin-2-yl]carbonyl}amino)acetyl]amino}-3,3-dimethylbutanoyl]-N-[(1R,2S)-1-({[ethyl(methyl)amino]sulfonyl}carbamoyl)-2-vinylcyclopropyl]-10,10-dimethyl-7-azadispiro[3.0.4.1]decane-8-carboxamide] gave an IC50 of 5 nM.
In the case of `C=C[C@@H]1C[C@]1(NC(=O)[C@@H]1C[C@@]2(CN1C(=O)[C@@H](NC(=O)[C@@H](NC(=O)c1cc(CC)nn1C)C1CCCCC1)C(C)(C)C)C(C)(C)C21CCC1)C(=O)NS(=O)(=O)N1CCCC1` [Compound 185, (5R,8S)-7-{(2S)-2-[(cyclohexyl{[(3-ethyl-1-methyl-1H-pyrazol-5-yl)carbonyl]amino}acetyl)amino]-3,3-dimethylbutanoyl}-10,10-dimethyl-N-{(1R,2S)-1-[(pyrrolidin-1-ylsulfonyl)carbamoyl]-2-vinylcyclopropyl}-7-azadispiro[3.0.4.1]decane-8-carboxamide], the IC50 is reported as 40 nM.
`C=C[C@@H]1C[C@]1(NC(=O)[C@@H]1C[C@@]2(CN1C(=O)[C@@H](NC(=O)[C@@H](NC(=O)[C@@H]1CCCCN1C(C)C)C1CCCCC1)C1CCOCC1)C(C)(C)C21CCC1)C(=O)NS(=O)(=O)N(CC)CC` [Compound 84, (5R,8S)-7-[(2S)-2-{[(2S)-2-cyclohexyl-2-({[(2S)-1-isopropylpiperidin-2-yl]carbonyl}amino)acetyl]amino}-2-(tetrahydro-2H-pyran-4-yl)acetyl]-N-[(1R,2S)-1-{[(diethylamino)sulfonyl]carbamoyl}-2-vinylcyclopropyl]-10,10-dimethyl-7-azadispiro[3.0.4.1]decane-8-carboxamide] gave an IC50 of 6 nM.
For `C=C[C@@H]1C[C@]1(NC(=O)[C@@H]1C[C@@]2(CN1C(=O)[C@@H](NC(=O)[C@@H](NC(=O)[C@@H]1CCCN1CC)C1(C)CCCCC1)C(C)(C)C)C(C)(C)C21CCC1)C(=O)NS(=O)(=O)N1CCCC1` [Compound 136, (5R,8S)-7-[(2S)-2-{[(2S)-2-({[(2S)-1-ethylpyrrolidin-2-yl]carbonyl}amino)-2-(1-methylcyclohexyl)acetyl]amino}-3,3-dimethylbutanoyl]-10,10-dimethyl-N-{(1R,2S)-1-[(pyrrolidin-1-ylsulfonyl)carbamoyl]-2-vinylcyclopropyl}-7-azadispiro[3.0.4.1]decane-8-carboxamide], the IC50 was 7 nM.
